In PubChem BioAssay AID248 (DTP/NCI, 2004):
Several values for one entry are separate records, joined by “and”; a condition that tells them apart may be missing. Equal entries are not always repeated. Toxic doses and inconclusive results are not listed. No stated cut-off is given here; in the data, active means T/C of 150% or more; inactive means T/C below 125%.

Tested on: L1210 leukemia ip in BDF1 mice, survival T/C
Experiment: NCI In Vivo Anticancer Drug Screen. Data for tumor model L1210 Leukemia (intraperitoneal) in B6D2F1 (BDF1) mice
Settings: endpoint: mean survival time, higher = longer survival
Method in brief: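 Survival endpoint. Drug-treated group vs vehicle group, expressed as T divided by C. Tumor passaged by transplantation.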

[1] = dose: 100.0 mg/kg/injection, schedule: Q01DX009 (ip), vehicle: saline with Tween-80
[2] = dose: 200.0 mg/kg/injection, schedule: Q01DX009 (ip), vehicle: saline with Tween-80
[3] = dose: 100.0 mg/kg/injection, schedule: Q04DX003 (ip), vehicle: saline with Tween-80
[4] = dose: 200.0 mg/kg/injection, schedule: Q04DX003 (ip), vehicle: saline with Tween-80
[5] = dose: 400.0 mg/kg/injection, schedule: Q01DX009 (ip), vehicle: saline with Tween-80
[6] = dose: 400.0 mg/kg/injection, schedule: Q04DX003 (ip), vehicle: saline with Tween-80
[7] = dose: 50.0 mg/kg/injection, schedule: Q01DX001 (ip), vehicle: carboxymethylcellulose (CMC)
[8] = dose: 100.0 mg/kg/injection, schedule: Q01DX001 (ip), vehicle: carboxymethylcellulose (CMC)
[9] = dose: 100.0 mg/kg/injection, schedule: Q01DX001 (ip), vehicle: saline
[10] = dose: 200.0 mg/kg/injection, schedule: Q01DX001 (ip), vehicle: saline
[11] = dose: 400.0 mg/kg/injection, schedule: Q01DX001 (ip), vehicle: saline
[12] = dose: 100.0 mg/kg/injection, schedule: Q04DX003 (ip), vehicle: Klucel (hydroxypropylcellulose) (HPC)
[13] = dose: 200.0 mg/kg/injection, schedule: Q04DX003 (ip), vehicle: Klucel (hydroxypropylcellulose) (HPC)
[14] = dose: 400.0 mg/kg/injection, schedule: Q04DX003 (ip), vehicle: Klucel (hydroxypropylcellulose) (HPC)

Measured: T/C

Brc1ccc(C[N+]23CN4CN(CN(C4)C2)C3)cc1
inactive: dose: 15.0 mg/kg/injection, schedule: Q01DX015 (ip), vehicle: saline 103 % of control | dose: 30.0 mg/kg/injection, schedule: Q01DX015 (ip), vehicle: saline 102 % of control | dose: 60.0 mg/kg/injection, schedule: Q01DX015 (ip), vehicle: saline 102 % of control | [1] 101 % of control | dose: 100.0 mg/kg/injection, schedule: Q04DX003 (ip), vehicle: saline 105 % of control | dose: 120.0 mg/kg/injection, schedule: Q01DX015 (ip), vehicle: saline 105 % of control | [2] 102 % of control | dose: 200.0 mg/kg/injection, schedule: Q04DX003 (ip), vehicle: saline 103 % of control | dose: 240.0 mg/kg/injection, schedule: Q01DX015 (ip), vehicle: saline 98 % of control | dose: 400.0 mg/kg/injection, schedule: Q04DX003 (ip), vehicle: saline 92 % of control

NS(=O)(=O)c1ccc(NC(=O)Nc2cccc3ccccc23)cc1
inactive: dose: 100.0 mg/kg/injection, schedule: Q01DX001 (ip), vehicle: saline with Tween-80 91 % of control | [1] 101 % of control and 108 % of control | dose: 100.0 mg/kg/injection, schedule: Q04DX002 (ip), vehicle: saline with Tween-80 95 % of control and 100 % of control | [3] 105 % of control | dose: 200.0 mg/kg/injection, schedule: Q01DX001 (ip), vehicle: saline with Tween-80 87 % of control | [2] 93 % of control and 100 % of control | dose: 200.0 mg/kg/injection, schedule: Q04DX002 (ip), vehicle: saline with Tween-80 98 % of control and 100 % of control | [4] 103 % of control | dose: 400.0 mg/kg/injection, schedule: Q01DX001 (ip), vehicle: saline with Tween-80 94 % of control | [5] 96 % of control and 105 % of control | dose: 400.0 mg/kg/injection, schedule: Q04DX002 (ip), vehicle: saline with Tween-80 93 % of control and 96 % of control | [6] 108 % of control

NNC(=O)c1c[nH]c2ccccc2c1=O
inactive: dose: 12.5 mg/kg/injection, schedule: Q01DX009 (ip), vehicle: Klucel (hydroxypropylcellulose) (HPC) 95 % of control | dose: 25.0 mg/kg/injection, schedule: Q01DX009 (ip), vehicle: Klucel (hydroxypropylcellulose) (HPC) 90 % of control | dose: 50.0 mg/kg/injection, schedule: Q01DX009 (ip), vehicle: Klucel (hydroxypropylcellulose) (HPC) 94 % of control

CN1CCC(O)(c2ccc(F)cc2)C(C(=O)c2ccc(F)cc2)C1 (stereo unspecified)
inactive: [7] 100 % of control | [8] 100 % of control | dose: 200.0 mg/kg/injection, schedule: Q01DX001 (ip), vehicle: carboxymethylcellulose (CMC) 94 % of control | dose: 400.0 mg/kg/injection, schedule: Q01DX001 (ip), vehicle: carboxymethylcellulose (CMC) 94 % of control

CC(CN1c2ccccc2Sc2ccc(Cl)cc21)N(C)CCCl (stereo unspecified)
inactive: dose: 75.0 mg/kg/injection, schedule: Q01DX001 (ip), vehicle: carboxymethylcellulose (CMC) 106 % of control and 114 % of control

Cc1cc(=O)[nH]c(N2CCCCC2)n1
inactive: [9] 111 % of control | [10] 95 % of control | [11] 101 % of control

NC(N)=N/N=C/c1c(O)ccc2ccccc12
inactive: dose: 15.0 mg/kg/injection, schedule: Q01DX Z (ip), vehicle: saline 99 % of control | dose: 15.6 mg/kg/injection, schedule: Q01DX010 (oral), vehicle: saline 117 % of control | dose: 31.0 mg/kg/injection, schedule: Q01DX Z (ip), vehicle: saline 94 % of control | dose: 31.3 mg/kg/injection, schedule: Q01DX010 (oral), vehicle: saline 118 % of control | dose: 63.0 mg/kg/injection, schedule: Q01DX Z (ip), vehicle: saline 86 % of control

CCOC(=O)CSCCC1CC(=O)N1 (stereo unspecified)
inactive: dose: 100.0 mg/kg/injection, schedule: Q04DX003 (ip), vehicle: other 103 % of control | dose: 200.0 mg/kg/injection, schedule: Q04DX003 (ip), vehicle: other 104 % of control | dose: 400.0 mg/kg/injection, schedule: Q04DX003 (ip), vehicle: other 107 % of control

N#CCCCCn1ccc(=O)[nH]c1=O
inactive: dose: 45.0 mg/kg/injection, schedule: Q01DX009 (ip), vehicle: Klucel (hydroxypropylcellulose) (HPC) 92 % of control | dose: 90.0 mg/kg/injection, schedule: Q01DX009 (ip), vehicle: Klucel (hydroxypropylcellulose) (HPC) 104 % of control | [12] 100 % of control | dose: 180.0 mg/kg/injection, schedule: Q01DX009 (ip), vehicle: Klucel (hydroxypropylcellulose) (HPC) 98 % of control | [13] 102 % of control | dose: 360.0 mg/kg/injection, schedule: Q01DX009 (ip), vehicle: Klucel (hydroxypropylcellulose) (HPC) 93 % of control | [14] 96 % of control

CC1CC(C)(C)CC2(C1)OCCCO2 (stereo unspecified)
inactive: dose: 50.0 mg/kg/injection, schedule: Q01DX009 (ip), vehicle: saline with Tween-80 90 % of control | [1] 102 % of control | [2] 98 % of control

O=C(O)CCC(=O)Nc1ccc2c(c1)B(O)OC2
inactive: dose: 50.0 mg/kg/injection, schedule: Q04DX003 (ip), vehicle: Klucel (hydroxypropylcellulose) (HPC) 101 % of control | [12] 96 % of control and 90 % of control | [13] 96 % of control | [14] 88 % of control

CCCCCCCCCCCCCC(=O)CC
inactive: dose: 90.0 mg/kg/injection, schedule: Q01DX009 (ip), vehicle: saline with Tween-80 98 % of control | [1] 92 % of control and 96 % of control | [3] 96 % of control | dose: 135.0 mg/kg/injection, schedule: Q01DX009 (ip), vehicle: saline with Tween-80 87 % of control | [2] 87 % of control and 88 % of control | [4] 96 % of control | dose: 300.0 mg/kg/injection, schedule: Q01DX009 (ip), vehicle: saline with Tween-80 92 % of control | [5] 97 % of control and 105 % of control | [6] 102 % of control

O=C1c2ccccc2C(=O)C1N=Nc1ccccc1
inactive: dose: 50.0 mg/kg/injection, schedule: Q01DX001 (ip), vehicle: saline 102 % of control | [9] 100 % of control | [10] 94 % of control | [11] 96 % of control

O=C(O)C12CCC(CC1)CC2
inactive: dose: 75.0 mg/kg/injection, schedule: Q01DX009 (ip), vehicle: saline 100 % of control | [9] 93 % of control | dose: 150.0 mg/kg/injection, schedule: Q01DX009 (ip), vehicle: saline 103 % of control | [10] 88 % of control | dose: 300.0 mg/kg/injection, schedule: Q01DX009 (ip), vehicle: saline 100 % of control | [11] 90 % of control

CSc1ncnc2c1N=CNN2
inactive: [7] 94 % of control | [8] 95 % of control
